Data as given in patent US20150087687A1 (priority 2012, published 2015).
Like-named read-outs stand apart in the source and are kept apart here.

Key:
[1] = target: glycogen synthase kinase-3β (GSK-3β) (Homo sapiens, UniProt P49841); conditions: concentration at which inhibition is stated; cited from earlier work
[2] = cited from earlier work
[3] = target: ERBB3 (Homo sapiens, UniProt P21860); test: targeting of kinases (FIG. 4): ERBB3; format: binding
[4] = tested on: W256 cells; conditions: cited from earlier work
[5] = tested on: cell lines and primary cancer cells; conditions: cited from earlier work
[6] = target: cytochrome P450 2C19 (Homo sapiens, UniProt P33261); test: metabolism by cytochrome P450 2C19; format: in vitro ADME; conditions: by oxidation
Sequence of cytochrome P450 2C19 (P33261 whole entry): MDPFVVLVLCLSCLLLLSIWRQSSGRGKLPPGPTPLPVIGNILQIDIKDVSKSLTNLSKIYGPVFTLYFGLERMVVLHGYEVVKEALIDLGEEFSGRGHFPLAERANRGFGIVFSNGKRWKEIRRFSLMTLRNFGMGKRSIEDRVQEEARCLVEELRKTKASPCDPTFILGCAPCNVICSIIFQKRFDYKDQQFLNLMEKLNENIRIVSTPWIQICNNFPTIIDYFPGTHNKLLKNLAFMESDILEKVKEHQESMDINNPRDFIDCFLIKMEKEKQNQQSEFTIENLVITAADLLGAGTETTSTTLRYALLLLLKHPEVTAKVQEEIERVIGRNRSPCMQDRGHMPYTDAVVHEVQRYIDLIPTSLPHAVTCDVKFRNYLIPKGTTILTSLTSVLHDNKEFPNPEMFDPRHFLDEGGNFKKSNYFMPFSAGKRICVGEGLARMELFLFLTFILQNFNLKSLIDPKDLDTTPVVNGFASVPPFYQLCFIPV

[7] = tested on: K562; conditions: CML; cited from earlier work
[8] = target: T1, cytochrome P450 1A2 (Homo sapiens, UniProt P05177); test: inhibition of cytochrome P450 1A2; format: in vitro ADME
T1 sequence (P05177 whole entry): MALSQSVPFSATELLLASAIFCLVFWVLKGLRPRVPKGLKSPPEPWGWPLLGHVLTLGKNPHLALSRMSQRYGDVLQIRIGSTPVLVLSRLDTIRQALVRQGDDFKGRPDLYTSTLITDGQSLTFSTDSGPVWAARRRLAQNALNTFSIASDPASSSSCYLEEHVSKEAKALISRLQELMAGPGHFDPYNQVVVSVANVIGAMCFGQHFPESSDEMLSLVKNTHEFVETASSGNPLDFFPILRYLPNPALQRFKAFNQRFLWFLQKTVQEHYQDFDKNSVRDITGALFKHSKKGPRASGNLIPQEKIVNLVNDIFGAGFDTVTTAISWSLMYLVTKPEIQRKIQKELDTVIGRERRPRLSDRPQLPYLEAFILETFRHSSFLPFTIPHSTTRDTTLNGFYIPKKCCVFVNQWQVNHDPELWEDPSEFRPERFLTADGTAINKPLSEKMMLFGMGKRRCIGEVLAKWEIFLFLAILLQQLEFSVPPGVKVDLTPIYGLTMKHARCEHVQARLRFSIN

[9] = tested on: NB4; conditions: AML; cited from earlier work
[10] = tested on: Lewis lung sarcoma; conditions: mouse, in vivo; cited from earlier work
[11] = tested on: primary AML cells; conditions: cited from earlier work
[12] = tested on: HL-60 cells; conditions: cited from earlier work
[13] = tested on: HT-29 colorectal xenografts; conditions: mouse, in vivo; cited from earlier work
[14] = tested on: hepatic cytochrome P450 (CYP); conditions: cited from earlier work
[15] = cited from earlier work; remark: listed apart in the source
[16] = tested on: uridine glucuronyltransferases (UGT); test: metabolism by uridine glucuronyltransferases; format: in vitro ADME; conditions: direct conjugation, without initial cytochrome P450 oxidation; more polar metabolites
[17] = tested on: HUVEC; conditions: cited from earlier work
[18] = tested on: AML NOD/SCID model; conditions: cited from earlier work
[19] = tested on: VEGF; conditions: antiangiogenic effects; cited from earlier work
[20] = tested on: Walker 256 carcino-sarcoma; conditions: in vivo; cited from earlier work
[21] = tested on: chronic myelogenous leukemia (CML); conditions: cited from earlier work
[22] = tested on: CD11b; conditions: promoting myeloid differentiation; cited from earlier work
[23] = tested on: murine cancer models; conditions: mouse, in vivo; cited from earlier work
[24] = tested on: primary AML; conditions: cited from earlier work
[25] = tested on: HT-29 colorectal cell lines; conditions: cited from earlier work
[26] = tested on: HL-60 myeloid cells; conditions: cited from earlier work
[27] = rat; cited from earlier work
[28] = tested on: K562; conditions: cited from earlier work
[29] = tested on: negative cell cycle regulators p21 and p27; conditions: induces cell cycle arrest; cited from earlier work
[30] = tested on: VCAM-1; conditions: antiangiogenic effects; cited from earlier work
[31] = tested on: ECV304; conditions: cited from earlier work
[32] = tested on: U937; conditions: AML; cited from earlier work
[33] = tested on: microtubule assembly; conditions: cited from earlier work
[34] = tested on: malignant cell lines, particularly AML cell lines; test: viability of cancer cell lines (Example 2); format: cell-based; conditions: 0.1-100 μM, 24 or 48 hours, FIG. 1-3
Protocol: Viability at 48 hours is shown by (♦); viability at 24 hours is shown by (▪).

[35] = target: NEK9 (Homo sapiens, UniProt Q8TD19); test: targeting of kinases (FIG. 4): NEK9; format: binding
Sequence of NEK9 (Q8TD19 whole entry, species assumed): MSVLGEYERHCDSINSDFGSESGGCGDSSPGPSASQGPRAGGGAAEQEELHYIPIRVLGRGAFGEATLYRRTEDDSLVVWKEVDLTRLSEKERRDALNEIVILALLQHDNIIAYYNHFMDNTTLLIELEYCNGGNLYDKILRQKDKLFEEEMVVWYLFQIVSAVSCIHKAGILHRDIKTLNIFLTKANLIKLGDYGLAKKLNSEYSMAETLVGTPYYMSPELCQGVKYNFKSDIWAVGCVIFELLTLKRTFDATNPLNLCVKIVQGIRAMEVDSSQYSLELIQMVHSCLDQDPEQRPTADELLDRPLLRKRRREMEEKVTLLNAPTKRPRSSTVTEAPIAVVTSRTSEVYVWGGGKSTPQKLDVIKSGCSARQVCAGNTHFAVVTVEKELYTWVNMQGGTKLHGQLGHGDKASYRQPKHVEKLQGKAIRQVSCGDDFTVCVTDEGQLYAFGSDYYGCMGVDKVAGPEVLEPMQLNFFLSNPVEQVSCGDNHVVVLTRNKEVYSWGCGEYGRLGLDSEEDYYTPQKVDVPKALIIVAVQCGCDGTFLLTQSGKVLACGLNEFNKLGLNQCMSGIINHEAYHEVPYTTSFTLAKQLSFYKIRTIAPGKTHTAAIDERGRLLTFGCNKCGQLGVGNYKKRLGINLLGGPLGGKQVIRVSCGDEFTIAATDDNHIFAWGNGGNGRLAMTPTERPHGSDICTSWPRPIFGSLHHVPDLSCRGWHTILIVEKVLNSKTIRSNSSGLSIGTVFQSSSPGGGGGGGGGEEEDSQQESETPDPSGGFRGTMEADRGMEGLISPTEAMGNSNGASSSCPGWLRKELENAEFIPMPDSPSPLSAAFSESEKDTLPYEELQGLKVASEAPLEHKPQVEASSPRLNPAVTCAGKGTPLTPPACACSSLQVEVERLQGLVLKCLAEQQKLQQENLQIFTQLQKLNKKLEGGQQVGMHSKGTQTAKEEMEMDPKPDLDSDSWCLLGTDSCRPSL

[36] = tested on: human myeloblastic leukemic cells; conditions: cited from earlier work
[37] = target: T1, cytochrome P450 1A2; test: metabolism by cytochrome P450 1A2; format: in vitro ADME; conditions: by oxidation
[38] = tested on: AML cell lines; conditions: cited from earlier work
[39] = cited from earlier work; remark: listed apart in the source
[40] = cited from earlier work; remark: listed apart in the source
[41] = tested on: mitochondria; conditions: effects on mitochondria; cited from earlier work
[42] = target: cytochrome P450 2C8 (Homo sapiens, UniProt P10632); test: inhibition of cytochrome P450 2C8; format: in vitro ADME
Sequence of cytochrome P450 2C8 (P10632 whole entry): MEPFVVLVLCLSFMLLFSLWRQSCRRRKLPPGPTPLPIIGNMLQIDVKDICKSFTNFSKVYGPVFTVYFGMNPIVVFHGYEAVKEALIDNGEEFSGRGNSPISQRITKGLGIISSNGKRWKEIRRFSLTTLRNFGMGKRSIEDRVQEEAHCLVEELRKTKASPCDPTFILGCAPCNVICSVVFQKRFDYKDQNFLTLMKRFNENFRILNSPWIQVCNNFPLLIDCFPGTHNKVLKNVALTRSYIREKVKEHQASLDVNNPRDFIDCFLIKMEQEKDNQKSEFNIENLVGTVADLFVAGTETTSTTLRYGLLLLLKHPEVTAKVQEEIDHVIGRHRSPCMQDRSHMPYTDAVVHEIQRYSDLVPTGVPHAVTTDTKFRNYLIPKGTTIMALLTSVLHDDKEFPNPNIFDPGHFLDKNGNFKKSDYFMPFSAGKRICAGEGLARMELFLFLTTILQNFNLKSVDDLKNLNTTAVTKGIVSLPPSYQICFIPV

[43] = target: STK25 (Homo sapiens, UniProt O00506); test: targeting of kinases (FIG. 4): STK25; format: binding
Sequence of STK25 (O00506 whole entry, species assumed): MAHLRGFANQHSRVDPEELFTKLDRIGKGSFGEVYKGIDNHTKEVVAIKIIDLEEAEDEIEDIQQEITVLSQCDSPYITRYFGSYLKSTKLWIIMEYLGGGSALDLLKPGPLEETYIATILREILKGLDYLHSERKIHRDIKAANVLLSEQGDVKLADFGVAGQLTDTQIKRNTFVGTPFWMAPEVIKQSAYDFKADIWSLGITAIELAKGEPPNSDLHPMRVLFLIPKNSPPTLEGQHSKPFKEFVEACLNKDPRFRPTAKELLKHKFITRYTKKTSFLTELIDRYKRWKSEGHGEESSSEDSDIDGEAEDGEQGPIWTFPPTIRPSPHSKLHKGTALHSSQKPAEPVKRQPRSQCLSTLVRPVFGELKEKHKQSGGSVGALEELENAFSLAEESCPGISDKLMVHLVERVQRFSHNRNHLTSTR

[44] = tested on: HL-60; conditions: AML; cited from earlier work
[45] = cited from earlier work; remark: listed apart in the source
[46] = tested on: Jurkat cells; conditions: inducing phosphorylation of c-Myb; cited from earlier work
[47] = tested on: ECV304; conditions: antiangiogenic effects; cited from earlier work
[48] = tested on: Bcl-2; conditions: induces apoptosis; cited from earlier work
[49] = tested on: AML cells; conditions: AML cells (DKO insensitive to chemotherapy); cited from earlier work
[50] = tested on: K562 cells; conditions: cited from earlier work
[51] = rats; cited from earlier work
[52] = tested on: HUVEC; conditions: antiangiogenic effects; cited from earlier work

Sequence of ERBB3 (P21860 20-1342, species assumed): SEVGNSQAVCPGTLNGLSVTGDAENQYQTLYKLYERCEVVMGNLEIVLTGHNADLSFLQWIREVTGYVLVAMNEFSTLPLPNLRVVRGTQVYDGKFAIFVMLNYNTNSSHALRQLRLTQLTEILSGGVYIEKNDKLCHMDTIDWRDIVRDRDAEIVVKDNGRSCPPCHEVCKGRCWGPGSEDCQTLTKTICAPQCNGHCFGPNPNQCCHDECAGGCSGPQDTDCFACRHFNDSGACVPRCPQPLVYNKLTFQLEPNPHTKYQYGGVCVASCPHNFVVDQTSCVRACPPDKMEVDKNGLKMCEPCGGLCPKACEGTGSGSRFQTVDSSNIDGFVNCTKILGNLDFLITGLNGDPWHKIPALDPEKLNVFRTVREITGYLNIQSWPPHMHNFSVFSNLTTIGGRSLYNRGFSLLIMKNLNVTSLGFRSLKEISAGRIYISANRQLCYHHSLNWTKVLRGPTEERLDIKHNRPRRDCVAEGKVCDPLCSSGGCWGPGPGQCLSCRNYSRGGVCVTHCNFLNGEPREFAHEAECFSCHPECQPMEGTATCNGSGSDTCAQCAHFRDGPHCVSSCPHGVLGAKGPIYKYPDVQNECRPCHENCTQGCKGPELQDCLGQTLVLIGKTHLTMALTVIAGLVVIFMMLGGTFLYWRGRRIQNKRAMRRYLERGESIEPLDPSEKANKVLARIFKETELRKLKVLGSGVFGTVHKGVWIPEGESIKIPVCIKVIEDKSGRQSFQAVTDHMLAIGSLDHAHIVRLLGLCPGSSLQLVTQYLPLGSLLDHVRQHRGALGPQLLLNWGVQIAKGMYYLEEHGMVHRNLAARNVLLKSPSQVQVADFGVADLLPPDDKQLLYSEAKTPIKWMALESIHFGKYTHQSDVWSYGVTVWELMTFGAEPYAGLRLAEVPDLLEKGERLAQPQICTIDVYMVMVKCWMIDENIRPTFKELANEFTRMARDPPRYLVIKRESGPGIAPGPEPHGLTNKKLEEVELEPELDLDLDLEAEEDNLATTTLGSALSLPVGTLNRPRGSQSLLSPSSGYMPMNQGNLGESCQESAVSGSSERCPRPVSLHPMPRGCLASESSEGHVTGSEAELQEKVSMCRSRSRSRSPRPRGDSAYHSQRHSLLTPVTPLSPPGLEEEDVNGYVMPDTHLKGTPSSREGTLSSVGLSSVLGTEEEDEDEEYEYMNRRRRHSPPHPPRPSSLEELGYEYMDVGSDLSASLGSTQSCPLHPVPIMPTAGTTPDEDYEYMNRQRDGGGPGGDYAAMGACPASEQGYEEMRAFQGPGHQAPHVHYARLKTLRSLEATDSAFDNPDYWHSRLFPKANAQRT
Sequence of glycogen synthase kinase-3β (GSK-3β) (P49841 whole entry, species assumed): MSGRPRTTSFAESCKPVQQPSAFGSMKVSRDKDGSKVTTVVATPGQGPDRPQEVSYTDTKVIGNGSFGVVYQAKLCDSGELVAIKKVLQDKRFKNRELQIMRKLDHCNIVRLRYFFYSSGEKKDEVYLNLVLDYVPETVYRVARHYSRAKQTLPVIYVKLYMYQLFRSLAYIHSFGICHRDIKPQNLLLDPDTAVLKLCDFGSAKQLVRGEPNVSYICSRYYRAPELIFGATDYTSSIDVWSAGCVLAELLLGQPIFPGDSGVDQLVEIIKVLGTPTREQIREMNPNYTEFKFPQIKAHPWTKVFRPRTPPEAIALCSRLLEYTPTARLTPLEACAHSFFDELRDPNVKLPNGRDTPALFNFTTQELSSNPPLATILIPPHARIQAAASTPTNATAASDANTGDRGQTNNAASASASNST

CN1C(=O)/C(=C2/C(=O)Nc3ccccc32)c2ccccc21 [meisoindigo, 3-(1,2-dihydro-2-oxo-3H-indol-3-ylidene)-1,3-dihydro-1-methyl-2H-indol-2-one]
inhibition of GSK-3β at [1]: 5 to 50 nM
mild nausea and vomiting ([2]; clinical trials, single agent or in combination with chemotherapy): 30%
cardiac, hepatic, or renal adverse effects ([2]; clinical trials): no cardiac, hepatic, or renal adverse effects
course of nausea and vomiting ([2]; clinical trials): spontaneously disappeared in two weeks
tolerability ([2]; several patient populations): well tolerated
binding with ERBB3 [3]: significant binding
DNA synthesis [4]: inhibition
RNA synthesis [4]: inhibition
IC50 ([5]; cell lines and primary cancer cells): high-μM concentration range
active against cell lines and primary cancer cells [5]: active
metabolized by cytochrome P450 2C19 [6]: metabolized
activity against K562 [7]: activity
inhibits cytochrome P450 1A2 at [8]: low micromolar concentrations
activity against NB4 [9]: activity
efficacy in Lewis lung sarcoma [10]: effective
Bcl-2 [11]: downregulation
p21 [11]: upregulation
p27 [11]: upregulation
c-myc [12]: decreases
β-catenin [12]: decreases
efficacy in HT-29 colorectal xenografts [13]: effective
sex differences in metabolism [14]: no sex differences
metabolic routes ([14]; hepatic cytochrome P450 (CYP)-mediated): N-demethylation and mono ring hydroxylation
interspecies differences in metabolism ([14]; rats, pigs, and humans): no major interspecies differences
water solubility [15]: water-soluble
metabolized by UGT [16]: metabolized
activity against HUVEC [17]: activity
spleen size ([18]; AML NOD/SCID model): dose-dependent spleen size reduction
efficacy in AML NOD/SCID model ([18]; mouse, in vivo): effective
VEGF protection [19]: decreased
efficacy in Walker 256 carcino-sarcoma [20]: effective
complete hematologic response ([21]; 50-200 mg/d p.o.): 33 % of patients
partial hematologic response ([21]; 50-200 mg/d p.o.): 58 % of patients
reduction of leukocyte count (median) ([21]; 50-200 mg/d p.o.): 31 days
reduction of splenomegaly (median) ([21]; 50-200 mg/d p.o.): 25 days
effect with hydroxyurea ([21]; combination with hydroxyurea): synergistic effect
CD11b [22]: upregulation
efficacy in murine cancer models [23]: effective
activity against primary AML [24]: activity
cell cycle specific effect [25]: G2/M arrest
cleavage of PARP [26]: stimulates the cleavage
cleavage of pro-caspase 3 [26]: stimulates the cleavage
cleavage of pro-caspase 8 [26]: stimulates the cleavage
cleavage of pro-caspase 9 [26]: stimulates the cleavage
target organs [27]: liver and the gastrointestinal tract
c-myc [28]: not
p21 [29]: upregulation
p27 [29]: upregulation
VCAM-1 [30]: decreased
activity against ECV304 [31]: activity
activity against U937 [32]: activity
microtubule assembly [33]: inhibition
killing of malignant cell lines [34]: effective in killing
binding with NEK9 [35]: strongest binding
c-myb gene expression [36]: downregulation
differentiation [36]: promotes differentiation
metabolized by cytochrome P450 1A2 [37]: metabolized
cell cycle specific effect [38]: arrest in G(O)/G1
human hepatic internal CL (Clint) [39]: ~83 mL/mg/kg
target organs ([40]; dog): liver and the gastrointestinal tract
well tolerated dose ([40]; dogs, p.o. for 6 months): 10 mg/kg/day
Bax protein expression [41]: no change
Bcl-2 protein expression [41]: no change
Bid protein expression [41]: no change
inhibits cytochrome P450 2C8 at [42]: low micromolar concentrations
binding with STK25 [43]: significant binding
activity against HL-60 [44]: activity
absorption ([45]; in vivo): rapidly absorbed
distribution ([45]; in vivo): widely distributed in the tissues
excretion ([45]; renal and biliary routes): renal excretion strongly predominating
Ahi-1 [46]: upregulation
ECV304 apoptosis [47]: apoptosis
Bcl-2 [48]: suppression
Bak [49]: upregulation
Bax [49]: upregulation
apoptosis mechanism [50]: novel caspase-dependent pathway
single dose LD50 [51]: 3900 mg/kg
tubule formulation in HUVEC [52]: decreased
